Measurements taken from PMC6220272, “Scaffold-Hopping from Synthetic Drugs by Holistic Molecular Representation” (Scientific Reports, 2018).

Legend:
Type in all cases: cell-based
[1] = system: apolipoprotein E (ApoE) mRNA in HepG2 cells; test: Target gene quantification (quantitative real-time PCR), ApoE; conditions: HepG2, 7 at 30 µM versus bexarotene at 1 µM, 8 h, qRT-PCR
Experimental: (§1) Moreover, 7 was characterized for its ability to modulate RXR target gene expression under more physiological conditions. Hepatoma cells (HepG2) were incubated with 7 (30 µM) or reference RXR agonist bexarotene (9, 1 µM) for eight hours and mRNA expression of RXR regulated genes ATP-binding cassette transporter A1 (ABCA1), angiopoietin like protein 4 (ANGPTL4) and apolipoprotein E (ApoE) was analysed by quantitative real-time PCR.
HepG2 cells were incubated with test compound 7 (30 µM) or bexarotene (1 µM) as positive control each dissolved in 0.1% DMSO or 0.1% DMSO alone as untreated control for 8 h, harvested, washed with cold phosphate buffered saline (PBS) and then directly used for RNA extraction with the Total RNA Mini Kit (R6834-02, Omega Bio-Tek, Inc., Norcross, GA, USA). 2 µg RNA were reverse-transcribed into cDNA using the High-Capacity cDNA Reverse Transcription Kit (4368814, Thermo Fischer Scientific, Inc.). RXR target gene expression was evaluated by quantitative real time PCR analysis with a StepOnePlus™ System (Life Technologies, Carlsbad, CA, USA) using PowerSYBRGreen (Life Technologies; 12.5 µl per well) and the primers reported in Supplementary Table 4[58]. […] The expression was quantified by the comparative ∆∆Ct method. […] Results are expressed as mean ± standard error of the mean (SEM) relative mRNA expression compared to DMSO (0.1%) control which was set as 1.

PPARα = biological target: T1, PPARα (Homo sapiens, UniProt Q07869); test: Gal4 hybrid reporter gene assay PPARα (selectivity profiling)
T1 construct: expressed in transfected cells; host or cells: HEK293T
T1 sequence (Q07869 239-466 limits assumed): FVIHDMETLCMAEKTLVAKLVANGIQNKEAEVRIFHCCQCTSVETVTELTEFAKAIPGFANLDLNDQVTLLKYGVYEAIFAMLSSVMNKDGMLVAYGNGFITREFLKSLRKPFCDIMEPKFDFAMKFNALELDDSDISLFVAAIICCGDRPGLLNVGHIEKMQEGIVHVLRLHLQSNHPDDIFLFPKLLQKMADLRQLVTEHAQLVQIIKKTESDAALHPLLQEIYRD
Experimental: as §1
(§2) The Gal4 hybrid reporter gene assays were conducted as reported previously[39]–[41]. pFA-CMV-based constructs comprising the ligand binding domain of the human nuclear receptor in question were used as expression plasmids for the chimera receptors. pFR-Luc (Stratagene) served as reporter plasmid and pRL-SV40 (Promega) for normalization of transfection efficiency and cell growth. The assays were conducted in 96-well format in HEK293T cells that were cultured as described previously[39]–[41]. Transient transfection was carried out using Lipofectamine LTX reagent (Invitrogen) according to the manufacturer’s protocol. After transfection and incubation with test compounds (12–14 h), cells were assayed for luciferase activity using Dual-Glo™ Luciferase Assay System (Promega) according to the manufacturer’s protocol. Luminescence was measured with an Infinite M200 luminometer (Tecan Deutschland GmbH). […]

RARγ = biological target: T2, RARγ (Homo sapiens, UniProt P13631); test: Gal4 hybrid reporter gene assay RARγ (selectivity profiling)
T2 construct: expressed in transfected cells; host or cells: HEK293T
T2 sequence (P13631 185-419 limits assumed): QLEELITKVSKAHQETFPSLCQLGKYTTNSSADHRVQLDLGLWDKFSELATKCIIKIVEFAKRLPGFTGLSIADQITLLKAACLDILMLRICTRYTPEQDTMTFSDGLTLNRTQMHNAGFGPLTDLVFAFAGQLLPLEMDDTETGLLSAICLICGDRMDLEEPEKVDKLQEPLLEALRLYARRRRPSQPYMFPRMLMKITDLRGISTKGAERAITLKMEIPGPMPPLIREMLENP
Experimental: as §1, §2

[2] = biological target: T3, human RXRβ ligand binding domain (Gal4 hybrid receptor) (Homo sapiens, UniProt P28702); test: Gal4 hybrid reporter gene assay RXRβ; conditions: HEK293T cells, n ≥ 4, read-out: RXRβ EC50 ± SEM
T3 construct: expressed in transfected cells; host or cells: HEK293T
T3 sequence (P28702 296-529 limits assumed): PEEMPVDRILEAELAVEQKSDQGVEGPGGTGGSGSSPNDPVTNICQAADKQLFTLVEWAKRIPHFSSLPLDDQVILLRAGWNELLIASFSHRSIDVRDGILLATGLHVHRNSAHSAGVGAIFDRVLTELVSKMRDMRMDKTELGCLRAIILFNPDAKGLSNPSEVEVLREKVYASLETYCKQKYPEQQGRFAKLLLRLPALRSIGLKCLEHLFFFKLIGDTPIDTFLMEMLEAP
Experimental: The 20 top-ranked synthetic compounds were selected and tested in vitro for their modulatory activity on RXR (Supplementary Table 1). Compounds were tested in specific hybrid reporter gene assays for RXRα, RXRβ and RXRγ modulation[39]–[41]. These assays rely on a constitutively expressed hybrid receptor composed of the respective human RXR ligand binding domain and the DNA binding domain of the Gal4 receptor from yeast. A Gal4 responsive firefly luciferase was used as reporter gene and constitutively expressed renilla luciferase served as internal control for transfection efficiency and test compound toxicity. All selected compounds were tested at 50 µM concentration on RXRα and for active compounds (Supplementary Fig. 1), dose response curves were recorded on all three RXR subtypes.
The Gal4 hybrid reporter gene assays were conducted as reported previously[39]–[41]. pFA-CMV-based constructs comprising the ligand binding domain of the human nuclear receptor in question were used as expression plasmids for the chimera receptors. pFR-Luc (Stratagene) served as reporter plasmid and pRL-SV40 (Promega) for normalization of transfection efficiency and cell growth. The assays were conducted in 96-well format in HEK293T cells that were cultured as described previously[39]–[41]. Transient transfection was carried out using Lipofectamine LTX reagent (Invitrogen) according to the manufacturer’s protocol. After transfection and incubation with test compounds (12–14 h), cells were assayed for luciferase activity using Dual-Glo™ Luciferase Assay System (Promega) according to the manufacturer’s protocol. Luminescence was measured with an Infinite M200 luminometer (Tecan Deutschland GmbH). All hybrid assays were validated with reference agonists (PPARα: GW7647; PPARγ: pioglitazone; PPARδ: L165,041; LXRα/β: T0901317; FXR: GW4064; RXRs: bexarotene; RARs: tretinoin; VDR: calcitriol; CAR: CITCO; PXR: SR12813) which yielded EC50 values in agreement with literature. The assays were conducted in duplicates with at least two independent repeats and for active compounds repeated without hybrid receptor coding DNA for every test compound at the highest tested concentration to exclude unspecific effects.
Supplementary Figure 2. Dose-response curves for RXRα activation. Compounds were tested in specific hybrid reporter gene assays for RXRα, RXRβ and RXRγ modulation.^1–3 These assays rely on a constitutively expressed hybrid receptor composed of the respective human RXR ligand binding domain and the DNA binding domain of the Gal4 receptor from yeast. A Gal4 responsive firefly luciferase was used as reporter gene and constitutively expressed renilla luciferase served as internal control for transfection efficiency and test compound toxicity. […]

HepG2 cells = test: Toxicity assay (WST-1, water-soluble tetrazolium assay); conditions: WST-1, HepG2 cells, 48 h
Experimental: WST-1 assay (Roche Diagnostics International AG, Rotkreuz, Schweiz) was performed according to manufacturer’s protocol in HepG2 cells. Cells were incubated with the test compounds (final concentrations: 1 µM, 10 µM, 30 µM, 50 µM and 100 µM) in DMEM/1% DMSO, and DMEM/1% DMSO as negative control. After 48 h, WST reagent (Roche Diagnostics International AG) was added to each well according to manufacturer’s instructions. After 45 min incubation, absorption (450 nm/reference: 620 nm) was determined with a Tecan Infinite M200 (Tecan Deutschland GmbH). Each experiment was set up in duplicates and repeated in four independent experiments. Results are expressed as mean ± SEM% of DMSO (0.1%) control.

activity on PPARα (PPARα): no activity
activity on RARγ (RARγ): no activity
EC50 [2]: 25.1 ± 0.1 µM
Structure (SMILES): CC(C)(C)c1cc(/C=N/NC(=O)c2ccc(N)cc2)cc(C(C)(C)C)c1 [Compound 7]
induction of ApoE mRNA expression [1]: comparable efficacy as RXR agonist bexarotene
concentration up to which no cytotoxic effect was seen (HepG2 cells): > 100 µM
